Molecules are shown by their SMILES.

The record followed here is US20080089851A1, “Brown Algae Cell Lyophilisate, Method For The Obtention Thereof” (BIOTECHMARINE, priority 2005, published 2008).

In experiment [1] the test system is microsomes of human keratinocytes. Description: Transport of lipids (choline), direct treatment of isolated microsomes. The class given is biochemical. As to conditions: for Capture of [^3H]choline: DPA 1 mM. An excerpt:
7.1—Assessment of the Rate of Transport of Macromolecules (Glucids, Lipids and Proteins) in a System of Isolated Microsomes. Direct Effect of the BB Product on Isolated Microsomes:
The microsomes of human keratinocytes form a membrane fraction obtained by high-speed differential centrifugation of a cell homogenate. This preparation of microsomes requires the addition of exogenous cofactors such as NADPH.
7.1.2—Transport of Lipids
(§1) The obtained microsomes from human keratinocytes in culture were rinsed 3 times with 25 mM Tris buffer, then preincubated in 1 ml of the same buffer for 30 minutes at 37° C. This solution was then discarded and the microsomes were placed into the 25 mM Tris buffer containing [^3H] Choline with stirring in a water bath at 37° C. The capture of choline was stopped by addition of a lysis buffer containing (50 mM de Tris, 140 mM NaCl, 1.5 mM MgSO4, 0.5% Igepal-Ca-630, 0.2% SDS). The kinetics of incubation was performed between 30 and 120 seconds. Subsequently, the microsomes were rinsed 2 times with PBS then dissolved in NaOH (1M) at 4° C. over night. The radioactivity was determined with a scintillation counter.
The protein assay was carried out following the BRADFORD method. The increase in absorbance at 595 nm, determined with a spectrophotometer, is proportional to the protein concentration.

The test system of experiment [2] is human keratinocytes in senescence. Description: Transport of lipids (choline), human keratinocytes in senescence. The class given is cell-based. To be noted: for Capture of [^3H]choline: DPA 1 mM. On the procedure: as §1
(§2) 7.3—Assessment of the Rate of Transport of Macromolecules at the Level of Human Keratinocytes in Senescence
(§3) The senescence is a phenomenon of cellular aging, where the cells are arrested in the phase G1 of the cell cycle and never enter the synthesis phase leading to the cell division. Senescent cells are characterized by their slow metabolism at synthesis and transport of macromolecules levels.
(§4) The cells in culture deprived of serum stop their growth, but continue to progress through the cell cycle until they reach the phase G1.
The assays were performed on keratinocytes, between the 8th and the 10th passage, in order to ensure the presence of senescent cells at control cells level.
(§5) The keratinocytes were seeded in multiwell plates (6 wells) at a rate of 10^5 cells per well in 3 ml of culture medium […] supplemented with EGF, hydrocortisone, insulin and gentamicyn. Afterwards they are maintained for 5 days in incubator under CO2.
7.3.2—Transport of Lipids
(§6) The membrane microsomes were separated by differential centrifugation.
The same protocol of capture of [3H] Choline was applied to the determination of the rate of transport of choline (cf. 6.1.2)

The test system of experiment [3] is normal human keratinocytes. Description: Transport of lipids (choline), normal human keratinocytes. The format is cell-based. As to conditions: for Capture of [^3H]choline: DPA 1 mM. The protocol:
as §1
7.2—Assessment of the Rate of Transport of Macromolecules at the Level of Normal Human Keratinocytes
The applied method was that of explants allowing to obtain, from a biopsy of human skin, keratinocytes in primary cultures. The assays were carried out on keratinocytes between the 2nd and the 4th passage in order to ensure a reproductibility between the different experiences.
The keratinocytes were divided into multiwell plates (6 wells) at a rate of 10^5 cells per well in 1 ml of culture medium […] supplemented with insulin and hydrocortisone. The cells were incubated in the presence and absence of the investigated product.
7.2.2—Transport of Lipids
as §6
The same protocol of capture of [3H] choline was used for the determination of the speed of transport of choline (cf. 6.1.2)

For experiment [4], the system named is human keratinocytes in senescence. The experiment in a line: Transport of proteins (albumin), human keratinocytes in senescence. The class given is cell-based. As to conditions: for Capture of albumin-FITC: ND 6 mg/ml. On the procedure:
The obtained microsomes from human keratinocytes in culture were rinsed 3 times with a buffer, afterwards pre-incubated in 1 ml of the same buffer for 30 minutes at 3° C. This solution was subsequently discarded and the microsomes were placed into the HBSS buffer containing albumin-FITC with stirring in a water bath at 37° C. The capture of albumin is stopped by addition of a Ringer's solution containing 122.5 mM NaCl; 5.4 mM KCl; 1.2 mM CaCl2; 0.8 mM MgCl2; 0.8 Na2HPO4; 0.2 NaHPO4; 5.5 mM glucose; 10 mM HEPES, pH 7,4. Afterwards, the microsomes were treated with Triton X-100 at (0.1% v/v in 3-(N-morpholino) propanesulfonic acid 20 mM, pH 7.4). The fluorescence was quantified with a spectrophotometer (excitation 480 nm: emission 520 nm). The kinetics of incubation was performed between 30 and 120 seconds.
as §2, §3, §4
The applied method allowed to obtain, from a human skin biopsy, primary cultures of keratinocytes. The assays were performed on keratinocytes, between the 8th and the 10th passage, in order to ensure the presence of senescent cells at control cells level.
as §5
7.3.3—Transport of Proteins (Albumin)
The assay was carried out in triplicate on human keratinocytes in senescence. • Charge 1: negative control not receiving any product. • Charge 2: positive control (Nocodazole, 6 mg/ml) • Charge 3-5: treated receiving the investigated product (3 concentrations) • Charge 6-8: treated with Nocodazole, 6 mg/ml, and the investigated product (3 concentrations)
The treatment of keratinocytes with the BB product in the presence and absence of Nocodazole, 6 mg/ml, was carried out for 120 minutes at 37° C. The membrane microsomes were separated by differential centrifugation.
The same protocol of capture of albumin-FITC was applied to determine the rate of transport of albumin (cf. 6.1.3)

In experiment [5] the test system is microsomes of human keratinocytes. The experiment in a line: Transport of proteins (albumin), direct treatment of isolated microsomes. To be noted: for Capture of albumin-FITC: ND 6 mg/ml. The class given is biochemical. On the procedure: 7.1—Assessment of the Rate of Transport of Macromolecules (Glucids, Lipids and Proteins) in a System of Isolated Microsomes. Direct Effect of the BB Product on Isolated Microsomes: The microsomes of human keratinocytes form a membrane fraction obtained by high-speed differential centrifugation of a cell homogenate. This preparation of microsomes requires the addition of exogenous cofactors such as NADPH. 7.1.3—Transport of Proteins (Albumin) The assay was performed in triplicate after the direct treatment of microsomes. • Charge 1: negative control not receiving any product • Charge 2: positive control (Nocodazole, 6 mg/ml) • Charge 3-5: treated receiving the investigated product (3 concentrations) • Charge 6-8: treated with Nocodazole 6 mg/ml, and with the investigated product (3 concentrations) The obtained microsomes from human keratinocytes in culture were rinsed 3 times with a buffer, afterwards pre-incubated in 1 ml of the same buffer for 30 minutes at 3° C. This solution was subsequently discarded and the microsomes were placed into the HBSS buffer containing albumin-FITC with stirring in a water bath at 37° C. The capture of albumin is stopped by addition of a Ringer's solution containing 122.5 mM NaCl; 5.4 mM KCl; 1.2 mM CaCl2; 0.8 mM MgCl2; 0.8 Na2HPO4; 0.2 NaHPO4; 5.5 mM glucose; 10 mM HEPES, pH 7,4. Afterwards, the microsomes were treated with Triton X-100 at (0.1% v/v in 3-(N-morpholino) propanesulfonic acid 20 mM, pH 7.4). The fluorescence was quantified with a spectrophotometer (excitation 480 nm: emission 520 nm). The kinetics of incubation was performed between 30 and 120 seconds. The treatment of microsomes with the BB product alone or in the presence of Nocodazole (ND) were carried out at the same time as the introduction of albumin-FITC into the incubation medium. The assay of proteins was performed following the BRADFORD method. The increase in absorbance at 595 nm is proportional to the concentration of proteins measured with a spectrophotometer.

Experiment [6] has as its system normal human keratinocytes. Description: Transport of proteins (albumin), normal human keratinocytes. The format is cell-based. As to conditions: for Capture of albumin-FITC: S.D. 6 mg/ml. On the procedure:
The obtained microsomes from human keratinocytes in culture were rinsed 3 times with a buffer, afterwards pre-incubated in 1 ml of the same buffer for 30 minutes at 3° C. This solution was subsequently discarded and the microsomes were placed into the HBSS buffer containing albumin-FITC with stirring in a water bath at 37° C. The capture of albumin is stopped by addition of a Ringer's solution containing 122.5 mM NaCl; 5.4 mM KCl; 1.2 mM CaCl2; 0.8 mM MgCl2; 0.8 Na2HPO4; 0.2 NaHPO4; 5.5 mM glucose; 10 mM HEPES, pH 7,4. Afterwards, the microsomes were treated with Triton X-100 at (0.1% v/v in 3-(N-morpholino) propanesulfonic acid 20 mM, pH 7.4). The fluorescence was quantified with a spectrophotometer (excitation 480 nm: emission 520 nm). The kinetics of incubation was performed between 30 and 120 seconds. 7.2—Assessment of the Rate of Transport of Macromolecules at the Level of Normal Human Keratinocytes The applied method was that of explants allowing to obtain, from a biopsy of human skin, keratinocytes in primary cultures. The assays were carried out on keratinocytes between the 2nd and the 4th passage in order to ensure a reproductibility between the different experiences. The keratinocytes were divided into multiwell plates (6 wells) at a rate of 10^5 cells per well in 1 ml of culture medium […] supplemented with insulin and hydrocortisone. The cells were incubated in the presence and absence of the investigated product. 7.2.3—Transport of Proteins (Albumin) The assay was carried out in triplicate on normal human keratinocytes in culture. • Charge 1: negative control not receiving any product. • Charge 2: positive control (Nocodazole, 6 mg/ml) • Charge 3-5: treated receiving the investigated product (3 concentrations) • Charge 6-8: treated with Nocodazole, 6 mg/ml, and with the investigated product (3 concentrations) The treatment of keratinocytes with the BB product in the presence and absence of Nocodazole, 6 mg/ml, was carried out for 120 minutes at 37° C. The membrane microsomes were separated by differential centrifugation. The same protocol of capture of albumin-FITC was used for the determination of the rate of transport of albumin (cf. 3.1.4.2)

As to `CN(C)CCOC(c1ccccc1)c1ccccc1` [DPA, Diphenhydramin], the “Capture of [^3H]choline” value in experiment [1] (30 s) is recorded as 74 pmol/mg proteins; in experiment [1] (60 s), 105 pmol/mg proteins; in experiment [1] (90 s) it was 132 pmol/mg proteins; in experiment [1] (120 s), 142 pmol/mg proteins; in experiment [2] (30 s), 55 pmol/mg of proteins; in experiment [2] (60 s) it was 79 pmol/mg of proteins. Moreover, the “Capture of [^3H]choline” value in experiment [2] (120 s) is 119 pmol/mg of proteins; in experiment [3] (30 s) it was 92 pmol/mg proteins; in experiment [3] (60 s), 115 pmol/mg proteins; in experiment [3] (90 s) it was 143 pmol/mg proteins; in experiment [3] (120 s), 156 pmol/mg proteins. In addition, the “rate of transport of lipids (in words)” value is recorded as “strongly inhibits” in experiment [1] (Diphenhydramin 1 mM alone), “strongly inhibits” in experiment [2] (Diphenhydramin 1 mM alone) and “moderately inhibits” in experiment [3] (Diphenhydramin 1 mM alone).
Take `COC(=O)Nc1nc2ccc(C(=O)c3cccs3)cc2[nH]1` [ND, Nocodazole]: the “Capture of albumin-FITC” value in experiment [4] (30 s) is reported as 0.06 μg/mg of proteins; in experiment [4] (60 s) it was 0.11 μg/mg of proteins; in experiment [4] (90 s), 0.19 μg/mg of proteins; in experiment [4] (120 s), 0.3 μg/mg of proteins; in experiment [5] (30 s), 0.11 μg/mg proteins; in experiment [5] (60 s), 0.29 μg/mg proteins. The “Capture of albumin-FITC” value in experiment [5] (90 s) came out at 0.34 μg/mg proteins; in experiment [5] (120 s), 0.43 μg/mg proteins; in experiment [6] (30 s), 0.09 μg/mg proteins; in experiment [6] (60 s), 0.22 μg/mg proteins; in experiment [6] (90 s), 0.26 μg/mg proteins; in experiment [6] (120 s), 0.37 μg/mg proteins. Further, the figures for the “rate of transport of proteins (in words)” value in experiment [4] (Nocodazole 6 mg/ml alone), in experiment [5] (Nocodazole 6 mg/ml alone) and in experiment [6] (Nocodazole 6 mg/ml alone) were “inhibits”, “strongly inhibits” and “inhibits”, respectively.
